Source: PMC8535176, “Efficacy of epetraborole against Mycobacterium abscessus is increased with norvaline” (PLoS Pathogens, 2021)
Converted amounts (≈) assume the structure as drawn.

Tests used:
[1] = molecular target: T1, M. tuberculosis LeuRS editing domain (LeuRSMtb; pMtbED) (Mycobacterium tuberculosis, UniProt P9WFV1); assay: isothermal titration calorimetry; type: binding
T1 construct: gene leuS
From the text: isothermal titration calorimetry on M. tuberculosis LeuRS editing domain (LeuRSMtb; pMtbED)

[2] = molecular target: T2, M. abscessus LeuRS editing domain (LeuRSMabs; pMabsED) (Mycobacteroides abscessus, UniProt B1MMK6); assay: isothermal titration calorimetry; type: binding
T2 construct: gene leuS; editing domain, residues 303-499 (text on crystals prints 303-498); N-terminal His tag with TEV site, removed; synthetic codon-optimised gene, pET24a(+), E. coli BL21(DE3)
T2 sequence (B1MMK6 303-499): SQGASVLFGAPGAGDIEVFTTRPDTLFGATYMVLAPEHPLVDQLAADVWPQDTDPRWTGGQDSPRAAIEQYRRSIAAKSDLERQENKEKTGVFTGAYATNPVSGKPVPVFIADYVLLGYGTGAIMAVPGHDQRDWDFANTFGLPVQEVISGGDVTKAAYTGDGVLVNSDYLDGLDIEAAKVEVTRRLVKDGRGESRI
From the text: isothermal titration calorimetry on M. abscessus LeuRS editing domain (LeuRSMabs; pMabsED)

B. cereus = assay: microbe, parasite or virus in culture; parameters: Whole-cell growth inhibition, dose-response MIC (MIC90) by resazurin microtiter assay (REMA), fluorescence read-out; settings: Bacillus cereus, read-out: MIC (µg/mL) / EPT
C. glutamicum = assay: microbe, parasite or virus in culture; parameters: Whole-cell growth inhibition, dose-response MIC (MIC90) by resazurin microtiter assay (REMA), fluorescence read-out; settings: Corynebacterium glutamicum, read-out: MIC (µg/mL) / EPT
E. coli = assay: microbe, parasite or virus in culture; parameters: Whole-cell growth inhibition, dose-response MIC (MIC90) by resazurin microtiter assay (REMA), fluorescence read-out; settings: Escherichia coli, read-out: MIC (µg/mL) / EPT
M. abscessus = assay: microbe, parasite or virus in culture; parameters: Whole-cell growth inhibition, dose-response MIC (MIC90) by resazurin microtiter assay (REMA), fluorescence read-out; settings: Mycobacteroides abscessus, read-out: MIC (µg/mL) / EPT
M. avium hominissuis = assay: microbe, parasite or virus in culture; parameters: Whole-cell growth inhibition, dose-response MIC (MIC90) by resazurin microtiter assay (REMA), fluorescence read-out; settings: Mycobacterium avium, read-out: MIC (µg/mL) / EPT
M. avium intracellulaire = assay: microbe, parasite or virus in culture; parameters: Whole-cell growth inhibition, dose-response MIC (MIC90) by resazurin microtiter assay (REMA), fluorescence read-out; settings: Mycobacterium avium, read-out: MIC (µg/mL) / EPT
M. tuberculosis Erdman = test system: T3, M. tuberculosis Erdman; assay: microbe, parasite or virus in culture; parameters: Whole-cell growth inhibition, dose-response MIC (MIC90) by resazurin microtiter assay (REMA), fluorescence read-out; settings: Mycobacterium tuberculosis, ERDMAN, read-out: MIC (µg/mL) / EPT
T3 construct: Erdman

M. tuberculosis H37Rv = test system: T4, M. tuberculosis H37Rv; assay: microbe, parasite or virus in culture; parameters: Whole-cell growth inhibition, dose-response MIC (MIC90) by resazurin microtiter assay (REMA), fluorescence read-out; settings: Mycobacterium tuberculosis, H37RV, read-out: MIC (µg/mL) / EPT
T4 construct: H37Rv

P. aeruginosa = assay: microbe, parasite or virus in culture; parameters: Whole-cell growth inhibition, dose-response MIC (MIC90) by resazurin microtiter assay (REMA), fluorescence read-out; settings: Pseudomonas aeruginosa, read-out: MIC (µg/mL) / EPT
[3] = test system: T5, Mycobacteroides abscessus subsp. abscessus ATCC 19977; assay: microbe, parasite or virus in culture; parameters: species or system M. abscessus; Resazurin microtiter assay (REMA), fluorescence; MIC at 90% growth inhibition from Gompertz fit; settings: ATCC19977, 48 h, rough morphotype, read-out: MIC EPT
T5 construct: ATCC 19977
Experimental: (§1) MIC values were determined using the resazurin microtiter assay (REMA). Cultures were grown to log phase (OD600 of 0.4–0.8) and diluted to OD600 of 0.005. Drugs were prepared in two-fold serial dilutions in 96-well plates with 90 μL of bacteria per well to a final volume of 100 μL. Plates were incubated at 37°C until drug-free wells were turbid (2 days for M. abscessus). Ten μL of resazurin (0.025% wt/vol) was added to each well. Once the drug-free wells turned pink (one doubling time), the fluorescence (ex/em 560nm/590nm) was measured using an Infinite F200 Tecan plate reader. Fluorescence intensities were converted to % viable cells relative to drug-free conditions and fit to the Gompertz equation using GraphPad Prism version 9. MIC values at 90% growth inhibition were determined from the nonlinear regression Gompertz equation. Next, we tested the in vitro activity of EPT against a panel of M. abscessus clinical isolates belonging to the three subspecies of the M. abscessus complex (M. abscessus, M. massiliense, and M. bolletii) with smooth and rough colony morphologies and with different drug susceptibility profiles to various antibiotics. There was no loss in activity against clinical isolates (range of 0.014–0.046 μg/mL) nor different morphologies (S2 Table). To determine the spectrum of activity of EPT, we curated a panel of various mycobacteria and representative gram-positive and gram-negative bacteria. […] Mycobacteria strains were grown in rolling [compound left out] culture at 37°C in Middlebrook 7H9 (Difco) supplemented with 10% albumin dextrose catalase (ADC), 0.2% glycerol, and 0.05% Tween 80 (7H9 complete) or on 7H10 agar plates supplemented with 10% oleic acid ADC and 0.5% glycerol at 37°C. When mentioned, the carbon source was modified from glycerol to acetate or the detergent Tween 80 was removed from the media. Bacillus cereus (clinical isolate), Corynebacterium glutamicum (ATCC 13032), Escherichia coli, and Pseudomonas aeruginosa PAO1 were grown in LB broth. HepG2 cells (ATCC HB-8065) were grown in Dulbecco’s modified Eagle’s medium (DMEM) with phenol red (from Gibco) supplemented with 10% fetal bovine serum at 37°C with 5% CO2.

[4] = test system: T6, Mycobacteroides abscessus subsp. abscessus MT16_1065; assay: microbe, parasite or virus in culture; parameters: species or system M. abscessus; Resazurin microtiter assay (REMA), fluorescence; MIC at 90% growth inhibition from Gompertz fit; settings: 48 h, smooth morphotype, read-out: MIC EPT
T6 construct: MT16_1065
Experimental: as §1

[5] = test system: T7, Mycobacteroides abscessus subsp. abscessus MT16_6490; assay: microbe, parasite or virus in culture; parameters: species or system M. abscessus; Resazurin microtiter assay (REMA), fluorescence; MIC at 90% growth inhibition from Gompertz fit; settings: 48 h, smooth morphotype, read-out: MIC EPT
T7 construct: MT16_6490
Experimental: as §1

[6] = test system: T8, Mycobacteroides abscessus subsp. bolletii AV; assay: microbe, parasite or virus in culture; parameters: species or system M. abscessus; Resazurin microtiter assay (REMA), fluorescence; MIC at 90% growth inhibition from Gompertz fit; settings: 48 h, smooth morphotype, read-out: MIC EPT
T8 construct: AV
Experimental: as §1

[7] = test system: T9, Mycobacteroides abscessus subsp. bolletii Paris 167; assay: microbe, parasite or virus in culture; parameters: species or system M. abscessus; Resazurin microtiter assay (REMA), fluorescence; MIC at 90% growth inhibition from Gompertz fit; settings: 48 h, rough morphotype, read-out: MIC EPT
T9 construct: Paris 167
Experimental: as §1

[8] = test system: T10, Mycobacteroides abscessus subsp. massiliense MT15_1748; assay: microbe, parasite or virus in culture; parameters: species or system M. abscessus; Resazurin microtiter assay (REMA), fluorescence; MIC at 90% growth inhibition from Gompertz fit; settings: 48 h, rough morphotype, read-out: MIC EPT
T10 construct: MT15_1748
Experimental: as §1

[9] = test system: T11, Mycobacteroides abscessus subsp. massiliense MT15_1749; assay: microbe, parasite or virus in culture; parameters: species or system M. abscessus; Resazurin microtiter assay (REMA), fluorescence; MIC at 90% growth inhibition from Gompertz fit; settings: 48 h, rough morphotype, read-out: MIC EPT
T11 construct: MT15_1749
Experimental: as §1

T1 sequence (P9WFV1 311-512 limits assumed): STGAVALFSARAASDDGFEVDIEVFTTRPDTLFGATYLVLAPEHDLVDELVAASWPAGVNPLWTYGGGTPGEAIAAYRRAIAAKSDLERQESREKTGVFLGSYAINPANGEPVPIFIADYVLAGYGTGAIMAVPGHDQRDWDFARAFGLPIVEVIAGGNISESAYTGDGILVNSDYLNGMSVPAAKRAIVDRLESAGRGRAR

For `NC[C@H]1OB(O)c2c(OCCCO)cccc21` [epetraborole], the Kd [1] was 10 ± 4 µM, the Kd [2] was 16 ± 4 µM and the MIC (B. cereus) was over 2.7 µg/mL. For the same compound, the MIC (C. glutamicum) was 2 µg/mL (≈ 8.44 µM), the MIC (E. coli) was 5.7 µg/mL (≈ 24 µM) and the MIC (M. abscessus) was 0.063 µg/mL (≈ 0.266 µM). For the same compound, the MIC (M. avium hominissuis) was 2.7 µg/mL (≈ 11.4 µM), the MIC (M. avium intracellulaire) was 2.7 µg/mL (≈ 11.4 µM) and the MIC (M. tuberculosis Erdman) was 0.19 µg/mL (≈ 0.801 µM). It also gave an MIC (M. tuberculosis H37Rv) of 0.46 µg/mL (≈ 1.94 µM), an MIC (P. aeruginosa) of over 2.7 µg/mL and an MIC [3] of 0.11 µg/mL (≈ 0.464 µM). The MIC [4] was 0.041 µg/mL (≈ 0.173 µM), the MIC [5] was 0.03 µg/mL (≈ 0.127 µM) and the MIC [6] was 0.046 µg/mL (≈ 0.194 µM). For the same compound, the MIC [7] was 0.027 µg/mL (≈ 0.114 µM), the MIC [8] was 0.022 µg/mL (≈ 0.0928 µM) and the MIC [9] was 0.014 µg/mL (≈ 0.0591 µM).
